Data: US20070010529A1, “Nitrogenous heterocyclic compounds and medical use thereof” (priority 2003, published 2007)

Columns and labels:
[1] = tested on: TNF-α production in THP-1 (human monocyte cell line); test: Inhibitory activity against TNF-α production using human cell lines (LPS-stimulated THP-1); assay type: cell-based; conditions: 1.5 h, THP-1 cells stimulated by LPS, cultured for 90 minutes, TNF-α by ELISA
Description: (2) Inhibitory Activity Against TNF-α Production Using Human Cell Lines
Using THP-1 which is a human monocyte cell line, the inhibitory effect of the compound of the present invention against TNF-α production stimulated by lipopolysaccharide (LPS) was studied.
Each 50 μL of lipopolysaccharide (LPS; Difco #3120-25-0) prepared to a concentration of 40 ng/mL using RPMI-1640 medium containing 10% fetal calf serum (hereinafter abbreviated as RPMI-1640) and RPMI-1640 containing the compound of the present invention was added to a 96-well plate for cell culture. One hundred μL of the cell suspension of THP-1 (Dainippon Pharmaceutical Co., Ltd, #06-202) prepared to a cell density of 2×10^6 cells/mL using RPMI-1640 was added and cultured for 90 minutes at 37° C. in an incubator (5% CO2, 95% air). After completion of the reaction, the culture medium supernatant was recovered and the amount of produced TNF-α was measured using an ELISA kit (Invitrogen, #850090192).
The inhibitory activity against TNF-α production, which is the effect of the compound of the present invention, was calculated as an inhibition rate (%) by the following equation: Inhibition rate (%)={(AC minus AX)/(AC minus AB)}×100 wherein AB is a measured value without LPS induction; AC is a measured value with LPS induction in the absence of a test compound; and AX is a measured value with LPS induction in the presence of a test compound. Inhibition rate of compounds with each concentration was calculated, and a value indicating 50% inhibition (IC50) was determined from the inhibition curve.

[2] = biological target: recombinant human p38 αMAP kinase (Homo sapiens, UniProt Q16539); test: Study on p38 αMAP kinase inhibitory activity (ATF-2 phosphorylation, Alpha Screen); assay type: biochemical; conditions: phosphorylation of biotinylated ATF2 by recombinant human p38 αMAP kinase, 30° C. for 30 minutes
recombinant human p38 αMAP kinase, sequence (Q16539 whole entry): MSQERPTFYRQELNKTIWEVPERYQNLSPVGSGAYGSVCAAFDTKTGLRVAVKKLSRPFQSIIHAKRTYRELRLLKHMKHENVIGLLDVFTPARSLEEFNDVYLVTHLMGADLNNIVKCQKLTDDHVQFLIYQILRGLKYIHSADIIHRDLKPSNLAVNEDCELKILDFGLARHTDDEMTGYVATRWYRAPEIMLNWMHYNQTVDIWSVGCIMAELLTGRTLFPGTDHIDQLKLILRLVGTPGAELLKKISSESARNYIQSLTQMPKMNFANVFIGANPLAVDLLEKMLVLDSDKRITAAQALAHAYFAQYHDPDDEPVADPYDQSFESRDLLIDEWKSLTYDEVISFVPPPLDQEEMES
Description: (1) Study on p38 αMAP Kinase Inhibitory Activity
Using activation transcription factor 2 (hereinafter abbreviated as ATF-2) which is a substrate for p38 αMAP kinase, the inhibitory action of the compounds of the present invention was investigated on the phosphorylation by a recombinant human p38 αMAP kinase.
A kinase buffer (25 mM Tris-HCl (pH 7.5), 5 mM β-glycerophosphate, 2 mM dithiothreitol, 0.1 mM Na3VO4, 10 mM MgCl2) containing a recombinant human p38 αMAP kinase was added to a 384-well plate (5 μL)(6.25 μg protein/well) for fluorescence measurement. After addition of a kinase buffer (5 μL) containing the compound of the present invention, the resulting mixture was incubated at room temperature for 20 minutes. A substrate mixture (5 μL) of biotinylated ATF2 of 5 μg/mL (Upstate Biotechnology #14-432), adenosine triphosphate (90 μmol/L)(Sigma #FL-AAS) and anti-phosphorylated ATF2 antibody (20-fold dilution)(Cell Signaling Technology #9221L) prepared separately was added thereto, and enzyme reaction was carried out at 30° C. for 30 minutes. After the reaction, Herpes buffer (5 μL) containing 0.25% BSA and 100 mM EDTA was added to stop the enzyme reaction. The amount of a complex of the phosphorylated ATF2 and anti-phosphorylated ATF2 antibody produced by the reaction was measured using an Alpha Screen™ Rabbit Detection kit (Packard #6760607).
The p38 αMAP kinase inhibitory activity, which is the effect of the compound of the present invention, was calculated as an inhibition rate (%) according to the following equation: Inhibition rate (%)={(AC minus AX)/(AC minus AB)}×100 wherein AB is a measured value without addition of the enzyme; AC is a measured value with addition of the enzyme in the absence of a test compound; and AX is a measured value with addition of the enzyme in the presence of a test compound.
Inhibition rate of compounds with each concentration was calculated, and a value indicating 50% inhibition (IC50) was determined from the inhibition curve.

Human CYP2C9 = Human CYP2C9 (Homo sapiens, UniProt P11712); test: Evaluation of human CYP2C9 inhibitory activity; assay type: in vitro ADME
Human CYP2C9, sequence (P11712 whole entry): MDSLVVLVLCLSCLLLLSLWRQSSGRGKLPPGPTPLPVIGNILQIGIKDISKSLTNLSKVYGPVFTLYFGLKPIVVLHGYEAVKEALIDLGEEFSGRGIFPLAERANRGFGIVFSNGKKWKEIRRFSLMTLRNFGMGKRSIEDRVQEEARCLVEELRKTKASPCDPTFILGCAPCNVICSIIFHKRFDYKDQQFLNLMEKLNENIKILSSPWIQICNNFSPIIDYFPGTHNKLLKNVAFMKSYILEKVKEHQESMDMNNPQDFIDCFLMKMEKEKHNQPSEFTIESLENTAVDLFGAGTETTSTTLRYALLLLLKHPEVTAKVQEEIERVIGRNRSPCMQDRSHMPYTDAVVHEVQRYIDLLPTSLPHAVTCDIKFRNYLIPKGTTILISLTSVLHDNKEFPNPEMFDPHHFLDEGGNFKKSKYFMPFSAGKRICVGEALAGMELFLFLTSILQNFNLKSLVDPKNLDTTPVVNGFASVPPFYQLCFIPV
Description: (5) Evaluation of Human CYP2C9 Inhibitory Activity
The CYP2C9 inhibitory activity of the compound of the present invention was evaluated by enhancing measurement precision and improving measurement sensitivity on the basis of Sato et. al method [Pharmacokinetics, Xenobio. Metabol. and Dispos., 16(2), 115-126 (2001)].

Human CYP3A4 = test: Evaluation of human CYP3A4 induction activity (HepG2 cells, hPXR/CYP3A4 luciferase reporter); assay type: in vitro ADME; conditions: concentration of 10 μM, rifampicin (10 μmol/L) set to 100%
Description: (4) Evaluation of Human CYP3A4 Induction Activity
HepG2 cells were cultured in a 5% CO2 incubator at 37° C., using a medium [MEM(+)] prepared by adding 1/100-fold amount of non-essential amino acids for MEM Eagle's medium (100×, ICN, #1681049), Antibiotic-Antimycotic (100×, Gibco, #15240-096), L-glutamine 200 mM (100×, Gibco, #25030-081) and 1/10-fold amount of fetal bovine serum (Sigma, #F9423) to a minimum essential medium Eagle (Mod.) with Earle's salts without L-glutamine. The medium was exchanged once every 2 to 3 days. About one-fifth of the cells which were cultured to a confluent state were passaged once a week. HepG2 cells which were cultured to almost confluent state in a 225 cm^2 culture flask were inoculated to a 24-well plate (Iwaki, #3820-024) to a concentration of 5×10^4 cells/MEM(+) of 500 μL/well. […] Twenty μL/well of the prepared cell lysis solution was transferred to a 96-well white plate (Perkin Elmer, #23300), and using a luminometer (Berthold Japan, Microlumat LB96P), each chemical luminescence was measured for 2 to 14 seconds after addition of luciferase assay reagent II [(LARII), 100 μL/well)] and for 2 to 14 seconds after addition of Stop & Glo reagent, 100 μL/well). […]
The CYP3A4 induction activity was calculated by setting a rise in transcription activity of CYP3A4 to 100% when using rifampicin (10 μmol/L) as a positive control drug.

[3] = tested on: TNF-α production induced by lipopolysaccharide (LPS); test: Rat cytokine-production model (LPS-induced TNF-α production in vivo); conditions: dose of 10 mg/kg orally; LPS 10 μg/kg intravenously after 2.0 hours; plasma ninety minutes after LPS
Description: (3) Rat Cytokine-Production Model
The in vivo effect of the compound of the present invention was studied on TNF-α production induced by lipopolysaccharide (LPS) in rats.
A medium containing the compound of the present invention was orally administered to male […] (Charles River Japan, Inc.), and after 2.0 hours, lipopolysaccharide (LPS, 055:B5, Difco) was intravenously administered at the dose of 10 μg/kg (5 animals/group). Only a medium was orally administered to a control group (5 animals). Ninety minutes after the LPS treatment, heparinized blood collection was performed via the abdominal cava vein under anesthesia with ether, and blood plasma was obtained by centrifugation (12,000 rpm, 3 minutes, 4° C.). The obtained blood plasma sample was stored at −80° C. until it was used. TNF-α in the blood plasma was measured using an ELISA kit from Genzyme/Techne (#10516).
The inhibitory activity of the compound of the present invention against TNF-α production was calculated as an inhibition rate (%) according to the following equation: Inhibition rate (%)={(AC minus AX)/AC}×100 wherein AC is a measured value in case where no test compound was administered under LPS induction, and AX is a measured value in case where a test compound was administered under LPS induction.

IC50 [1] [nM] | IC50 [2] [nM] | IC50 (Human CYP2C9) [nM] | Structure (SMILES) | CYP3A4 induction activity (Human CYP3A4) | inhibition against in vivo TNF-α production induced by LPS stimulation [3] [%]
21 | 2.5 | – | Cc1ccc(-n2nc(C(C)(C)C)cc2NC(=O)Nc2cc(CN3CCN(C(=O)c4ccc(CN5CCN(C)CC5)cc4)CC3)ccc2Cl)cc1 [13(2), N-[3-t-butyl-1-(4-methylphenyl)-1H-pyrazol-5-yl]-N′-{2-chloro-5-[(4-{4-[(4-methylpiperazin-1-yl)methyl]benzoyl}piperazin-1-yl)methyl]phenyl}urea] | – | –
17 | 3.8 | – | Cc1ccc(-n2nc(C(C)(C)C)cc2NC(=O)Nc2ccc(OC3CCN(C(=O)c4ccc(CN5CCN(C)CC5)cc4)CC3)cc2C)cc1 [Example 17, N-[3-t-butyl-1-(4-methylphenyl)-1H-pyrazol-5-yl]-N′-{2-methyl-4-[(1-{4-[(4-methylpiperazin-1-yl)methyl]benzoyl}piperidin-4-yl)oxy]phenyl}urea] | – | –
35 | 5.6 | 21000 | Cc1ccc(-n2nc(C(C)(C)C)cc2NC(=O)Nc2ccc(CN3CCN(C(=O)c4ccc(CN5CCN(C)CC5)cc4)CC3)cc2C)cc1 [Example 13(1), N-[3-t-butyl-1-(4-methylphenyl)-1H-pyrazol-5-yl]-N′-{2-methyl-4-[(4-{4-[(4-methylpiperazin-1-yl)methyl]benzoyl}piperazin-1-yl)methyl]phenyl}urea] | did not show CYP3A4 induction activity at all | –
2.3 | 2.9 | – | Cc1ccc(-n2nc(C(C)(C)C)cc2NC(=O)Nc2ccc(CN3CCC(=O)N(c4ccccc4C)C3)cc2)cc1 [Example 4(1), N-[3-t-butyl-1-(4-methylphenyl)-1H-pyrazol-5-yl]-N′-(4-{[3-(2-methylphenyl)-4-oxotetrahydropyrimidin-1(2H)-yl]methyl}phenyl)urea] | – | 72.8
